Data published in the supplement of paper PMC10307832.

Tests used:
Assay in all cases: relative viability (nuclei count vs DMSO), 5 days (fraction); higher = more cells survive
Bleomycin + Bortezomib = compound: CC1=C(N=C(N=C1N)[C@H](CC(=O)N)NC[C@@H](C(=O)N)N)C(=O)N[C@@H]([C@H](C2=CN=CN2)OC3C(C(C(C(O3)CO)O)O)OC4C(C(C(C(O4)CO)O)OC(=O)N)O)C(=O)N[C@H](C)[C@H]([C@H](C)C(=O)N[C@@H]([C@@H](C)O)C(=O)NCCC5=NC(=CS5)C6=NC(=CS6)C(=O)NCCC[S+](C)C)O [Bleomycin] + CC(C)C[C@H](NC(=O)[C@H](Cc1ccccc1)NC(=O)c1cnccn1)B(O)O [Bortezomib] (partner 0.002 µM); conditions: main component drawn
Method in brief: (§1)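 Lung cancer cell lines in 1536-well plates got either a single drug or a fixed anchor-drug dose together with five library-drug doses (not always all listed) in √10 steps, by pin tool, on the day after seeding. Nuclei were counted after 5 days, and relative viability is the treated-to-vehicle ratio of nuclei counts. Values are medians of duplicate plates.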

Bleomycin + Vorinostat = compound: CC1=C(N=C(N=C1N)[C@H](CC(=O)N)NC[C@@H](C(=O)N)N)C(=O)N[C@@H]([C@H](C2=CN=CN2)OC3C(C(C(C(O3)CO)O)O)OC4C(C(C(C(O4)CO)O)OC(=O)N)O)C(=O)N[C@H](C)[C@H]([C@H](C)C(=O)N[C@@H]([C@@H](C)O)C(=O)NCCC5=NC(=CS5)C6=NC(=CS6)C(=O)NCCC[S+](C)C)O [Bleomycin] + O=C(CCCCCCC(=O)Nc1ccccc1)NO [Vorinostat] (partner 1 µM); conditions: main component drawn
Method in brief: as §1

Etoposide + AZD7762 = compound: COc1cc([C@@H]2c3cc4c(cc3[C@@H](O[C@@H]3O[C@@H]5CO[C@@H](C)O[C@H]5[C@H](O)[C@H]3O)[C@H]3COC(=O)[C@H]23)OCO4)cc(OC)c1O [Etoposide] + NC(=O)Nc1cc(-c2cccc(F)c2)sc1C(=O)N[C@H]1CCCNC1 [AZD7762] (partner 0.2 µM)
Method in brief: as §1

Etoposide + Phenformin = compound: COc1cc([C@@H]2c3cc4c(cc3[C@@H](O[C@@H]3O[C@@H]5CO[C@@H](C)O[C@H]5[C@H](O)[C@H]3O)[C@H]3COC(=O)[C@H]23)OCO4)cc(OC)c1O [Etoposide] + N=C(N)NC(=N)NCCc1ccccc1 [Phenformin] (partner 250 µM)
Method in brief: as §1

| Cell Line | relative viability (Bleomycin + Bortezomib; first compound 0.01 µM) | relative viability (Bleomycin + Bortezomib; first compound 0.03162 µM) | relative viability (Bleomycin + Bortezomib; first compound 0.1 µM) | relative viability (Bleomycin + Bortezomib; first compound 0.3162 µM) | relative viability (Bleomycin + Bortezomib; first compound 1 µM) | relative viability (Bleomycin + Vorinostat; first compound 0.01 µM) | relative viability (Bleomycin + Vorinostat; first compound 0.03162 µM) | relative viability (Bleomycin + Vorinostat; first compound 0.1 µM) | relative viability (Bleomycin + Vorinostat; first compound 0.3162 µM) | relative viability (Bleomycin + Vorinostat; first compound 1 µM) | relative viability (Etoposide + AZD7762; first compound 0.01 µM) | relative viability (Etoposide + AZD7762; first compound 0.03162 µM) | relative viability (Etoposide + AZD7762; first compound 0.1 µM) | relative viability (Etoposide + AZD7762; first compound 0.3162 µM) | relative viability (Etoposide + AZD7762; first compound 1 µM) | relative viability (Etoposide + Phenformin; first compound 0.01 µM) | relative viability (Etoposide + Phenformin; first compound 0.03162 µM) | relative viability (Etoposide + Phenformin; first compound 0.1 µM) | relative viability (Etoposide + Phenformin; first compound 0.3162 µM) | relative viability (Etoposide + Phenformin; first compound 1 µM) |
| --- | --- | --- | --- | --- | --- | --- | --- | --- | --- | --- | --- | --- | --- | --- | --- | --- | --- | --- | --- | --- |
| HCC-15 | 0.914 | 1.01 | 0.815 | 0.299 | 0.318 | 0.77 | 0.864 | 0.702 | 0.327 | 0.249 | 1.2 | 1.34 | 1.32 | 1.01 | 0.777 | 0.496 | 0.526 | 0.429 | 0.152 | 0.132 |
| EKVX | 0.859 | 1.04 | 0.954 | 0.511 | 0.318 | 0.724 | 0.611 | 0.607 | 0.366 | 0.411 | 0.759 | 0.818 | 0.268 | 0.344 | 0.272 | 0.262 | 0.271 | 0.196 | 0.254 | 0.178 |
| NCI-H2126 | 1.06 | 1.08 | 1.08 | 0.7 | 0.947 | 0.785 | 0.692 | 0.771 | 0.442 | 0.5 | 0.93 | 1.08 | 0.681 | 0.948 | 0.919 | 0.524 | 0.534 | 0.427 | 0.413 | 0.236 |
| NCI-H1437 | 0.519 | 0.44 | 0.452 | 0.121 | 0.303 | 0.712 | 0.758 | 0.733 | 0.458 | 0.413 | 1.03 | 1.11 | 1.14 | 1.07 | 0.722 | 0.265 | 0.342 | 0.357 | 0.233 | 0.2 |
| ABC-1 | 0.325 | 0.311 | 0.275 | 0.195 | 0.242 | 1.24 | 1.28 | 1.07 | 0.684 | 0.579 | 0.978 | 0.851 | 0.468 | 0.425 | 0.369 | 0.239 | 0.244 | 0.241 | 0.201 | 0.171 |
| PC-14 | 0.541 | 0.253 | 0.155 | 0.0725 | 0.0825 | 0.414 | 0.406 | 0.198 | 0.0393 | 0.0658 | 0.338 | 0.396 | 0.317 | 0.307 | 0.17 | 0.621 | 0.662 | 0.485 | 0.372 | 0.203 |
| A-427 | 0.857 | 0.817 | 0.725 | 0.167 | 0.213 | 0.753 | 0.768 | 0.717 | 0.46 | 0.271 | 0.713 | 0.741 | 0.569 | 0.473 | 0.286 | 0.362 | 0.317 | 0.258 | 0.213 | 0.143 |
| LCLC-97TM1 | 0.173 | 0.17 | 0.0959 | 0.077 | 0.0823 | 0.179 | 0.15 | 0.18 | 0.106 | 0.0733 | 0.226 | 0.323 | 0.173 | 0.15 | 0.099 | 0.454 | 0.487 | 0.439 | 0.328 | 0.184 |
| LCLC-103H | 1.07 | 1.12 | 1.1 | 0.556 | 0.467 | 0.678 | 0.625 | 0.704 | 0.654 | 0.417 | 0.756 | 0.787 | 0.597 | 0.742 | 0.608 | 0.316 | 0.348 | 0.329 | 0.346 | 0.305 |
| RERF-LC-KJ | 0.887 | 0.727 | 0.625 | 0.343 | 0.334 | 0.489 | 0.55 | 0.421 | 0.344 | 0.25 | 0.935 | 1.1 | 0.583 | 0.861 | 0.967 | 0.414 | 0.469 | 0.42 | 0.36 | 0.329 |
| BEN | 0.909 | 0.868 | 0.967 | 0.578 | 0.609 | 0.63 | 0.609 | 0.481 | 0.531 | 0.497 | 0.828 | 0.818 |  | 0.665 | 0.606 | 0.249 | 0.266 |  | 0.264 | 0.289 |
| NCI-H1666 | 0.622 | 0.427 | 0.434 | 0.31 | 0.261 | 0.786 | 0.926 | 0.885 | 0.652 | 0.613 | 0.852 | 0.99 | 0.814 | 0.583 | 0.532 | 0.513 | 0.571 | 0.507 | 0.398 | 0.363 |
| LC-2-ad | 0.943 | 0.624 | 0.316 | 0.127 | 0.0954 | 0.62 | 0.609 | 0.466 | 0.236 | 0.2 | 0.762 | 0.882 | 0.853 | 0.741 | 0.571 | 0.602 | 0.559 | 0.456 | 0.344 | 0.268 |
| ChaGo-K-1 |  | 1.01 | 0.768 | 0.393 | 0.306 | 0.512 | 0.526 | 0.483 | 0.303 | 0.279 | 0.859 | 0.863 | 0.863 | 0.69 | 0.302 | 0.423 | 0.546 | 0.471 | 0.282 | 0.169 |
| NCI-H1975 | 0.27 | 0.342 | 0.27 | 0.16 | 0.142 | 0.482 | 0.514 | 0.386 | 0.215 | 0.162 | 0.702 | 0.804 | 0.508 | 0.658 | 0.443 | 0.398 | 0.486 | 0.382 | 0.293 | 0.17 |
